Source: ChEMBL document CHEMBL1141575, “Preparation and in vitro biological evaluation of tetrapyrrole ethanolamide derivatives as potential anticancer agents” (Bioorg Med Chem Lett, 2008)
pIC50: −log10 of the molar value.

What was measured:
[1] = Survival of human MDA-MB cells at 100 uM under deem light after 96 hrs by MTT assay relative to control; format: functional; conditions: read-out: Survival
[2] = tested on: K562; experiment: Survival of human K562 cells at 100 uM under deem light after 96 hrs by MTT assay relative to control; format: functional; conditions: K562, 96 h, read-out: Survival
[3] = Photohemolysis in human RBC assessed as concentration required to 50% hemolysis under light exposure for 10 mins; format: ADME, cell-based, Erythrocyte; conditions: human red blood cells, read-out: Activity
[4] = tested on: Raji; experiment: Survival of human Raji cells at 1 uM under deem light after 96 hrs by MTT assay relative to control; format: functional; conditions: read-out: Survival
[5] = tested on: Daudi; experiment: Cytotoxicity against human Daudi cells under deem light after 96 hrs by MTT assay; format: functional, cell-based
[6] = Survival of human 2780.9S cells at 50 uM under deem light after 96 hrs by MTT assay relative to control; format: functional; conditions: read-out: Survival
[7] = Survival of human 2780.9S cells at 100 uM under deem light after 96 hrs by MTT assay relative to control; format: functional; conditions: read-out: Survival
[8] = Survival of human MDA-MB cells at 0.1 uM under deem light after 96 hrs by MTT assay relative to control; format: functional; conditions: read-out: Survival
[9] = Survival of human H209 cells at 10 uM under deem light after 96 hrs by MTT assay relative to control; format: functional; conditions: NCI-H209, 96 h, read-out: Survival
[10] = tested on: NCI-H69; experiment: Survival of human H69 cells at 100 uM under deem light after 96 hrs by MTT assay relative to control; format: functional; conditions: NCI-H69, 96 h, read-out: Survival
[11] = Survival of human H209 cells at 0.1 uM under deem light after 96 hrs by MTT assay relative to control; format: functional; conditions: NCI-H209, 96 h, read-out: Survival
[12] = tested on: Raji; experiment: Survival of human Raji cells at 50 uM under deem light after 96 hrs by MTT assay relative to control; format: functional; conditions: read-out: Survival
[13] = tested on: HeLa; experiment: Cytotoxicity against human HeLa cells under deem light after 96 hrs by MTT assay; format: functional, cell-based
[14] = tested on: NCI-H69; experiment: Survival of human H69 cells at 1 uM under deem light after 96 hrs by MTT assay relative to control; format: functional; conditions: NCI-H69, 96 h, read-out: Survival
[15] = Cytotoxicity against human 2780.9S cells under deem light after 96 hrs by MTT assay; format: functional, cell-based
[16] = tested on: NCI-H69; experiment: Cytotoxicity against human H69 cells under deem light after 96 hrs by MTT assay; format: functional, cell-based; conditions: NCI-H69, 96 h
[17] = tested on: SiHa; experiment: Cytotoxicity against human SIHA cells under deem light after 96 hrs by MTT assay; format: functional, cell-based
[18] = tested on: Raji; experiment: Survival of human Raji cells at 0.1 uM under deem light after 96 hrs by MTT assay relative to control; format: functional; conditions: read-out: Survival
[19] = Survival of human H209 cells at 1 uM under deem light after 96 hrs by MTT assay relative to control; format: functional; conditions: NCI-H209, 96 h, read-out: Survival
[20] = tested on: Raji; experiment: Survival of human Raji cells at 10 uM under deem light after 96 hrs by MTT assay relative to control; format: functional; conditions: read-out: Survival
[21] = Survival of human 2780.9S cells at 0.1 uM under deem light after 96 hrs by MTT assay relative to control; format: functional; conditions: read-out: Survival
[22] = Photohemolysis in human RBC in absence of light; format: ADME, cell-based; conditions: erythrocyte
[23] = tested on: SiHa; experiment: Survival of human SIHA cells at 10 uM under deem light after 96 hrs by MTT assay relative to control; format: functional; conditions: read-out: Survival
[24] = tested on: SiHa; experiment: Survival of human SIHA cells at 50 uM under deem light after 96 hrs by MTT assay relative to control; format: functional; conditions: read-out: Survival
[25] = tested on: SiHa; experiment: Survival of human SIHA cells at 1 uM under deem light after 96 hrs by MTT assay relative to control; format: functional; conditions: read-out: Survival
[26] = tested on: NCI-H69; experiment: Survival of human H69 cells at 0.1 uM under deem light after 96 hrs by MTT assay relative to control; format: functional; conditions: NCI-H69, 96 h, read-out: Survival
[27] = Photohemolysis in human RBC assessed as concentration required to 50% hemolysis under light exposure for 5 mins; format: ADME, cell-based, Erythrocyte; conditions: human red blood cells, read-out: Activity
[28] = tested on: SiHa; experiment: Survival of human SIHA cells at 100 uM under deem light after 96 hrs by MTT assay relative to control; format: functional; conditions: read-out: Survival
[29] = Survival of human MDA-MB cells at 10 uM under deem light after 96 hrs by MTT assay relative to control; format: functional; conditions: read-out: Survival
[30] = tested on: HeLa; experiment: Survival of human HeLa cells at 1 uM under deem light after 96 hrs by MTT assay relative to control; format: functional; conditions: read-out: Survival
[31] = tested on: HeLa; experiment: Survival of human HeLa cells at 50 uM under deem light after 96 hrs by MTT assay relative to control; format: functional; conditions: read-out: Survival
[32] = tested on: NCI-H69; experiment: Survival of human H69 cells at 10 uM under deem light after 96 hrs by MTT assay relative to control; format: functional; conditions: NCI-H69, 96 h, read-out: Survival
[33] = Survival of human MDA-MB cells at 1 uM under deem light after 96 hrs by MTT assay relative to control; format: functional; conditions: read-out: Survival
[34] = tested on: K562; experiment: Cytotoxicity against human K562 cells under deem light after 96 hrs by MTT assay; format: functional, cell-based; conditions: K562, 96 h
[35] = tested on: K562; experiment: Survival of human K562 cells at 50 uM under deem light after 96 hrs by MTT assay relative to control; format: functional; conditions: K562, 96 h, read-out: Survival
[36] = tested on: K562; experiment: Survival of human K562 cells at 0.1 uM under deem light after 96 hrs by MTT assay relative to control; format: functional; conditions: K562, 96 h, read-out: Survival
[37] = tested on: HeLa; experiment: Survival of human HeLa cells at 100 uM under deem light after 96 hrs by MTT assay relative to control; format: functional; conditions: read-out: Survival
[38] = tested on: HeLa; experiment: Survival of human HeLa cells at 10 uM under deem light after 96 hrs by MTT assay relative to control; format: functional; conditions: read-out: Survival
[39] = Survival of human MDA-MB cells at 50 uM under deem light after 96 hrs by MTT assay relative to control; format: functional; conditions: read-out: Survival
[40] = tested on: Raji; experiment: Cytotoxicity against human Raji cells under deem light after 96 hrs by MTT assay; format: functional, cell-based
[41] = tested on: K562; experiment: Survival of human K562 cells at 10 uM under deem light after 96 hrs by MTT assay relative to control; format: functional; conditions: K562, 96 h, read-out: Survival
[42] = Survival of human 2780.9S cells at 10 uM under deem light after 96 hrs by MTT assay relative to control; format: functional; conditions: read-out: Survival
[43] = Survival of human 2780.9S cells at 1 uM under deem light after 96 hrs by MTT assay relative to control; format: functional; conditions: read-out: Survival
[44] = Survival of human H209 cells at 100 uM under deem light after 96 hrs by MTT assay relative to control; format: functional; conditions: NCI-H209, 96 h, read-out: Survival
[45] = tested on: NCI-H69; experiment: Survival of human H69 cells at 50 uM under deem light after 96 hrs by MTT assay relative to control; format: functional; conditions: NCI-H69, 96 h, read-out: Survival
[46] = tested on: Raji; experiment: Survival of human Raji cells at 100 uM under deem light after 96 hrs by MTT assay relative to control; format: functional; conditions: read-out: Survival
[47] = tested on: HeLa; experiment: Survival of human HeLa cells at 0.1 uM under deem light after 96 hrs by MTT assay relative to control; format: functional; conditions: read-out: Survival
[48] = Cytotoxicity against human MDA-MB cells under deem light after 96 hrs by MTT assay; format: functional, cell-based
[49] = Survival of human H209 cells at 50 uM under deem light after 96 hrs by MTT assay relative to control; format: functional; conditions: NCI-H209, 96 h, read-out: Survival
[50] = tested on: K562; experiment: Survival of human K562 cells at 1 uM under deem light after 96 hrs by MTT assay relative to control; format: functional; conditions: K562, 96 h, read-out: Survival
[51] = Photohemolysis in human RBC at 520 nM under exposure to light for 10 mins; format: ADME, cell-based, Erythrocyte; conditions: human red blood cells, read-out: Activity

SMILES: C=Cc1c(C)c2cc3nc(c4c5[nH]c(cc6nc(cc1[nH]2)C(C)=C6CC)c(C)c5C(=O)[C@@H]4C(=O)OC)[C@@H](CCC(=O)OC)[C@@H]3C [METHYL PHEOPHORBIDE A]
- viability at 100 µM [1]: 68.9%
- viability at 100 µM [2]: 106%
- HC50 at 10 min [3]: > 525 nM
- viability at 1 µM [4]: 102%
- pIC50 [5]: 4.60
- viability at 50 µM [6]: 90.1%
- viability at 100 µM [7]: 83.2%
- viability at 0.1 µM [8]: 128%
- viability at 10 µM [9]: 91.7%
- viability at 100 µM [10]: 63.6%
- viability at 0.1 µM [11]: 83.6%
- viability at 50 µM [12]: 106%
- pIC50 [13]: 4.60
- viability at 1 µM [14]: 84.3%
- pIC50 [15]: < 4.00
- pIC50 [16]: < 4.00
- pIC50 [17]: < 4.00
- viability at 0.1 µM [18]: 92.9%
- viability at 1 µM [19]: 90.2%
- viability at 10 µM [20]: 107%
- viability at 0.1 µM [21]: 100%
- Activity [22]: Non-toxic
- viability at 10 µM [23]: 90.8%
- viability at 50 µM [24]: 81%
- viability at 1 µM [25]: 98%
- viability at 0.1 µM [26]: 70.7%
- HC50 at 5 min [27]: > 525 nM
- viability at 100 µM [28]: 68%
- viability at 10 µM [29]: 103%
- viability at 1 µM [30]: 77.4%
- viability at 50 µM [31]: 48.7%
- viability at 10 µM [32]: 79%
- viability at 1 µM [33]: 115%
- pIC50 [34]: < 4.00
- viability at 50 µM [35]: 97.3%
- viability at 0.1 µM [36]: 86%
- viability at 100 µM [37]: 36.7%
- viability at 10 µM [38]: 72.1%
- viability at 50 µM [39]: 101%
- pIC50 [40]: < 4.00
- viability at 10 µM [41]: 97.3%
- viability at 10 µM [42]: 93.4%
- viability at 1 µM [43]: 94.9%
- viability at 100 µM [44]: 82.3%
- viability at 50 µM [45]: 76.7%
- viability at 100 µM [46]: 94.3%
- viability at 0.1 µM [47]: 89.1%
- pIC50 [48]: < 4.00
- viability at 50 µM [49]: 85.2%
- viability at 1 µM [50]: 93.3%
- hemolysis at 10 min, 0.52 µM [51]: 18%
